Measurements from patent US20020192736A1, “Assay of peroxidase activity” (Pierce Chemical Company, priority 2001, published 2002).
Several values for one entry are separate records, joined by “and”; a condition that tells them apart may be missing. Equal values may be shown once. Read-outs that look alike come from different tables or passages of the source.

Assays:
[1] = molecular target: horseradish peroxidase labeled streptavidin (SA-HRP) (Armoracia rusticana, UniProt P00433); assay: Dot blot assay on nitrocellulose membrane, film densitometry (relative intensity); type: biochemical
Sequence of horseradish peroxidase labeled streptavidin (SA-HRP) (P22629 25-183 partner, one chain of several): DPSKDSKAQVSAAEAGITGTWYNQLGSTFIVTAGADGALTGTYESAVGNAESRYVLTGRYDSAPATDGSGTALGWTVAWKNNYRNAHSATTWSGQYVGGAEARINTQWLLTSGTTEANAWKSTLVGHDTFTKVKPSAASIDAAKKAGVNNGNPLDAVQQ

B-HRP = molecular target: T1, B-HRP (Armoracia rusticana, UniProt P00433); assay: Dot blot assay with B-HRP, film densitometry; settings: for Net Relative Intensity at 0.98 pg B-HRP / Net Relative Intensity at 3.9 pg B-HRP / Net Relative Intensity at 62.5 pg B-HRP / Net Relative Intensity at 250 pg B-HRP: […] Azine Enhancer, 5 mM Sodium Luminol
T1 sequence (P00433 31-338): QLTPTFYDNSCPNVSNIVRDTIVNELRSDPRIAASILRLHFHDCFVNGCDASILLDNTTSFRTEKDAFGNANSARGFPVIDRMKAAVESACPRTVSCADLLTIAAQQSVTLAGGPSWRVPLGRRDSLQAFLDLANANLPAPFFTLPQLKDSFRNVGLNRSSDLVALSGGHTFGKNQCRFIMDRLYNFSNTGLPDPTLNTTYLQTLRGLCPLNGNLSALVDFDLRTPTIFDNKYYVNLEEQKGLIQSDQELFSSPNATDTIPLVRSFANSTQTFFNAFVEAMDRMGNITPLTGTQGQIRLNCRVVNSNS

oxidized peroxidase = assay: Poisoning of the chemiluminescent system; type: biochemical; settings: azine with hydrogen atom bonded to the ring nitrogen
Experimental: The contaminant has been identified as a reducing azine species wherein the azine is capable of donating an electron or otherwise reacting with oxidized peroxidase (or peroxidase equivalent). […] This characterization has been made both by theoretic analysis, chemical analysis to determine the presence of the 10=H species, and by reconstruction experiments wherein the “poisoning azine” was added to highly purified azine compositions in order to quantitate the poisoning effects, and to establish the preferred purity of the azine enhancers. […] Concentrations or absolute amounts of a target analyte, which are one-tenth the minimum detectable by other systems can be detected in preferred systems of the invention. […]
This species is a non-enhancing oxidized species of […]. […] If a thiazine with a hydrogen in the 10-yl position is proven to be a non-poisoning species (by its inability to readily react with oxidized peroxidase at room temperature), its presence in or absence from the solution is inconsequential. […] By describing these compounds as inert or not readily reactive with oxidized peroxidase, the basis for the consideration of these terms is visible effects upon luminescence in a peroxidase system. […]

[2] = 50 μM Azine Enhancer, 1 mM Sodium Luminol
[3] = […] Azine Enhancer, 5 mM Sodium Luminol
[4] = 20 pg SA-HRP, enhancer concentrations as in row ([…] 1c; 52 μM 1c; 52 μM 1b; 13.5 μM 3)
[5] = 30 minute reexposure, working solutions: […] 1c, 52 μM 1c, 52 μM 1b, 13.5 μM 3, 52 μM 1b + 13.5 μM 3

2-chloro-10 (3 trimethyl amino propyl)-phenothiazonan bromide [Azine Enhancer 1d]
Net Relative Intensity at 1000 pg SA-HRP [1]: 1,106,656 and 1,538,600 | Net Relative Intensity at 0.98 pg B-HRP (B-HRP): 0 | Net Relative Intensity at 3.9 pg B-HRP (B-HRP): 0 | Net Relative Intensity at 62.5 pg B-HRP (B-HRP): 1.70 | Net Relative Intensity at 250 pg B-HRP (B-HRP): 15.63

CN1c2ccccc2Sc2ccccc21 [Azine Enhancer 1b, N-Methylphenothiazine]
Net Relative Intensity at 10 pg SA-HRP [1]: 0 | Net Relative Intensity at 100 pg SA-HRP [1]: 0 | Relative Intensity 2 pg SA-HRP [1]: 0 | Relative Intensity 5 pg SA-HRP [1]: 0 | Relative Intensity 20 pg SA-HRP [1]: 573,864 | Relative Intensity 1 minute [1]: 457,800 | Relative Intensity 5 minutes [1]: 628,408 | Relative Intensity 30 minutes [1]: 573,864 | Relative Intensity 1 hours [1]: 502,376 | Relative Intensity 24 hours [1]: 0

O=C(O)CCCN1c2ccccc2Sc2ccccc21 [Azine Enhancer 1e]
Net Relative Intensity at 10 pg SA-HRP [1, 2]: 1,416,056 | Net Relative Intensity at 100 pg SA-HRP [1, 2]: 4,351,240 | Net Relative Intensity at 1000 pg SA-HRP [1, 2]: 9,599,880 | Net Relative Intensity at 10 pg SA-HRP [1, 3]: 432,352 | Net Relative Intensity at 100 pg SA-HRP [1, 3]: 3,021,440 | Net Relative Intensity at 1000 pg SA-HRP [1, 3]: 8,706,320

O=S(=O)([O-])CCCCN1c2ccccc2Sc2ccccc21.[Na+] [Azine Enhancer 1f]
Net Relative Intensity at 0.98 pg B-HRP (B-HRP): 12.05 | Net Relative Intensity at 3.9 pg B-HRP (B-HRP): 28.77 | Net Relative Intensity at 62.5 pg B-HRP (B-HRP): 91.44 | Net Relative Intensity at 250 pg B-HRP (B-HRP): 151.53

CC(CN1c2ccccc2Sc2ccccc21)C[N+](C)(C)C.[Cl-] (stereo not drawn) [Azine Enhancer 1g]
Net Relative Intensity at 0.98 pg B-HRP (B-HRP): 0 | Net Relative Intensity at 3.9 pg B-HRP (B-HRP): 0 | Net Relative Intensity at 62.5 pg B-HRP (B-HRP): 2.16 | Net Relative Intensity at 250 pg B-HRP (B-HRP): 17.92

O=S(=O)([O-])CCCCN1c2ccccc2Sc2ccc(Cl)cc21.[Na+] [Azine Enhancer 1h]
Net Relative Intensity at 0.98 pg B-HRP (B-HRP): 0.20 | Net Relative Intensity at 3.9 pg B-HRP (B-HRP): 0.55 | Net Relative Intensity at 62.5 pg B-HRP (B-HRP): 44.09 | Net Relative Intensity at 250 pg B-HRP (B-HRP): 75.58

c1ccc2c(c1)Nc1ccccc1S2 [Azine Poison 1a, phenothiazine]
Background RI at 0 pg of B-HRP (B-HRP): 7.74 and 6.15 and 6.01 and 7.24 | Relative Intensity at 250 pg of B-HRP (B-HRP): 180.38 and 209.39 and 165.28

O=C1C=CC(=Nc2ccc(O)cc2)C=C1 [Phenolic Enhancer 3, Phenolindophenol/indophenol]
Relative Intensity 1 minute [1, 4]: 747,888 | Relative Intensity 5 minutes [1, 4]: 707,432 | Relative Intensity 30 minutes [1, 4]: 598,082 | Relative Intensity 1 hours [1, 4]: 492,016 | Relative Intensity 2 hours [1, 4]: 274,888 | Relative Intensity 24 hours [1, 4]: 0 | Relative Intensity 2 pg SA-HRP [1, 5]: 0 | Relative Intensity 5 pg SA-HRP [1, 5]: 106,776 | Relative Intensity 20 pg SA-HRP [1, 5]: 598,072

[O-][O+]1c2ccccc2Nc2ccccc21 [phenoxazine-5-oxide]
poisoning of the chemiluminescent system (oxidized peroxidase): does not poison the system
